22 molecules from patent US12252488B2 (Nimbus Saturn, Inc., priority 2021, dated 2025) can be followed below.

In the assay the target is T1, HPK1 (Homo sapiens, UniProt Q92918).
T1 construct: purchased Invitrogen
T1 sequence (Q92918 whole entry): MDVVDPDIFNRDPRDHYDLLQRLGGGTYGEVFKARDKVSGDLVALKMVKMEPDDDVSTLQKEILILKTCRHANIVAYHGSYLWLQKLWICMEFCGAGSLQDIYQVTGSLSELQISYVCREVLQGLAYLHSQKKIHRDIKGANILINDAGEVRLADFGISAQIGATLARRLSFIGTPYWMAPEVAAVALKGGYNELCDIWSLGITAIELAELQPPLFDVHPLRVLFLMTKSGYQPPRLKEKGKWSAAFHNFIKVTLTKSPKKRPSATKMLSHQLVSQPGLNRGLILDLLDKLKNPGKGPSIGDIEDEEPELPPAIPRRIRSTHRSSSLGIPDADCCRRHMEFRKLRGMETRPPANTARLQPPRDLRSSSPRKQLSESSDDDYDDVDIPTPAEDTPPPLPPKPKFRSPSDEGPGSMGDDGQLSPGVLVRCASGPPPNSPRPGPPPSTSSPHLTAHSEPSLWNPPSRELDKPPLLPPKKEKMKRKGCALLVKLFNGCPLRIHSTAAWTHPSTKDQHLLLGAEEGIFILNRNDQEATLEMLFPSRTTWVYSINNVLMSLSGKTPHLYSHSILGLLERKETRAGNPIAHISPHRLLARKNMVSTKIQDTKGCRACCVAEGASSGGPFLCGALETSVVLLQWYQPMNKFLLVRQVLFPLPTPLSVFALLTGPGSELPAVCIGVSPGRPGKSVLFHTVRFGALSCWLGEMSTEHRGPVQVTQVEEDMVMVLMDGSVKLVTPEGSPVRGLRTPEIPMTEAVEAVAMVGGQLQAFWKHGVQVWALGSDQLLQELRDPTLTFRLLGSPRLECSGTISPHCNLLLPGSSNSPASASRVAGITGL
In words: HPK1 biochemical enzyme assay (microfluidic mobility shift assay). The settings on record: 1000 uM (1 mM) ATP; Caliper mobility shift; 1.5 nM HPK1; 30 min preincubation; read-out: HPK1 1000UMATP caliper IC50. An outline of the steps:
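IC50 values, grouped into activity categories, come from 10-point titrations (top final 3 μM) preincubated 30 min with 1.5 nM enzyme and substrate at pH 7.4. ATP (1 mM), substrate (1 μM) and MgCl2 (5 mM) then added; after 60 min at RT, product separated by microfluidic mobility shift.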
Turning to `Cc1c(C(=O)N2CCCCC2)ccc(-c2cc(Nc3ccc(N4CCC(O)CC4)cn3)c3c(=O)[nH]ccc3n2)c1F` [I-113, 2-[2-fluoro-3-methyl-4-(piperidine-1-carbonyl)phenyl]-4-[[5-(4-hydroxy-1-piperidyl)-2-pyridyl]amino]-6H-1,6-naphthyridin-5-one], the IC50 was 100 to 1000 nM.

Consider `CN1CCc2c(ccc(F)c2-c2cc(Nc3ccc(N4CCC(O)CC4)cn3)c3c(=O)[nH]ccc3n2)C1` [I-268, 2-(6-fluoro-2-methyl-3,4-dihydro-1H-isoquinolin-5-yl)-4-[[5-(4-hydroxy-1-piperidyl)-2-pyridyl]amino]-6H-1,6-naphthyridin-5-one], for which the half-maximal inhibitory concentration (IC50) is more than 1000 nM.

With `N#Cc1c[nH]c(=O)c2c(Nc3ccc(N4CCC(O)CC4)cn3)cc(-c3c(F)cccc3F)nc12` [I-33, 2-(2,6-difluorophenyl)-4-[[5-(4-hydroxy-1-piperidyl)-2-pyridyl]amino]-5-oxo-6H-1,6-naphthyridine-8-carbonitrile], the IC50 lay in the range of 100 to 1000 nM.

Consider `CCNC(=O)c1ccc(Nc2cc(-c3c(F)cccc3F)nc3nc[nH]c(=O)c23)cc1` [I-14, 4-[[7-(2,6-difluoro-phenyl)-4-oxo-3H-pyrido[2,3-d]pyrimidin-5-yl]amino]-N-ethyl-benzamide], for which the 50% inhibitory concentration (IC50) is not above 100 nM.

Take `NC(=O)c1ccc(F)c(-c2cc(Nc3ccc(N4CCC(O)CC4)cn3)c3c(=O)[nH]ccc3n2)c1` [I-51, 4-fluoro-3-[4-[[5-(4-hydroxy-1-piperidyl)-2-pyridyl]amino]-5-oxo-6H-1,6-naphthyridin-2-yl]benzamide]: the IC50 lay within 100 to 1000 nM.

`O=c1[nH]ccc2nc(-c3ccc(CN4CCOCC4)cc3F)cc(Nc3ccc(N4CCC(O)CC4)cn3)c12` [I-181, 2-[2-fluoro-4-(morpholino-methyl)phenyl]-4-[[5-(4-hydroxy-1-piperidyl)-2-pyridyl]amino]-6H-1,6-naphthyridin-5-one]: the IC50 is more than 1000 nM.

With `Cc1c[nH]c(=O)c2c(Nc3ccc(N4CCC(O)CC4)cn3)cc(-c3ccc(C(=O)N4CCCCC4)cc3F)nc12` [I-146, 2-[2-fluoro-4-(piperidine-1-carbonyl)phenyl]-4-[[5-(4-hydroxy-1-piperidyl)-2-pyridyl]amino]-8-methyl-6H-1,6-naphthyridin-5-one], the IC50 was in the range of 100 to 1000 nM.

Consider `CN(C)C(=O)c1ccc(F)c(-c2cc(Nc3ccc(N4CCC(O)CC4)cn3)c3c(=O)[nH]ccc3n2)c1` [I-79, 4-fluoro-3-[4-[[5-(4-hydroxy-1-piperidyl)-2-pyridyl]amino]-5-oxo-6H-1,6-naphthyridin-2-yl]-N,N-dimethyl-benzamide], for which the IC50 lay in the range of 100 to 1000 nM.

With `CCn1ccc(Nc2cc(-c3cc(OC)c(C(=O)N4CCCCC4)cc3F)nc3cc[nH]c(=O)c23)nc1=O` [I-228, 4-((1-ethyl-2-oxo-1,2-dihydropyrimidin-4-yl)amino)-2-(2-fluoro-5-methoxy-4-(piperidine-1-carbonyl)phenyl)-1,6-naphthyridin-5(6H)-one], the IC50 is not above 100 nM.

Turning to `COc1ccc(F)c(-c2cc(Nc3ccc(N4CCC(O)CC4)cn3)c3c(=O)[nH]ccc3n2)c1` [I-42, 2-(2-fluoro-5-methoxyphenyl)-4-((5-(4-hydroxypiperidin-1-yl)pyridin-2-yl)amino)-1,6-naphthyridin-5(6H)-one], the concentration for half-maximal inhibition (IC50) lay in the range of 100 to 1000 nM.

For `COc1cc(-c2cc(Nc3ccc(N4CCC(O)CC4)cn3)c3c(=O)[nH]cc(C)c3n2)c(F)cc1C(=O)N1CCCCC1` [I-163, 2-[2-fluoro-5-methoxy-4-(piperidine-1-carbonyl)phenyl]-4-[[5-(4-hydroxy-1-piperidyl)-2-pyridyl]amino]-8-methyl-6H-1,6-naphthyridin-5-one], the IC50 was more than 1000 nM.

Turning to `O=C(Nc1ccc(-c2cc(Nc3ccc(N4CCOCC4)cn3)c3c(=O)[nH]ccc3n2)c(F)c1)C1CCCCC1` [I-159, N-[3-fluoro-4-[4-[(5-morpholino-2-pyridyl)amino]-5-oxo-6H-1,6-naphthyridin-2-yl]phenyl] cyclohexane carboxamide], the concentration for half-maximal inhibition (IC50) was not above 100 nM.

Turning to `CN1CCN(C(=O)c2ccc(-c3cc(Nc4ccc(N5CCC(O)CC5)cn4)c4c(=O)[nH]ccc4n3)c(F)c2)CC1` [I-131, 2-[2-fluoro-4-(4-methyl-piperazine-1-carbonyl)phenyl]-4-[[5-(4-hydroxy-1-piperidyl)-2-pyridyl]amino]-6H-1,6-naphthyridin-5-one], the 50% inhibitory concentration (IC50) was 100 to 1000 nM.

Consider `CC1(C(=O)Nc2ccc(-c3cc(Nc4ccc(N5CCC(O)CC5)cn4)c4c(=O)[nH]ccc4n3)c(F)c2)CCC1` [I-211, N-[3-fluoro-4-[4-[[5-(4-hydroxy-1-piperidyl)-2-pyridyl]amino]-5-oxo-6H-1,6-naphthyridin-2-yl]phenyl]-1-methyl-cyclobutane-carboxamide], for which the IC50 is more than 1000 nM.

Take `O=c1[nH]ccc2nc(-c3cc(CN4CCCCC4)ccc3F)cc(Nc3ccc(N4CCC(O)CC4)cn3)c12` [I-150, 2-[2-fluoro-5-(1-piperidyl-methyl)phenyl]-4-[[5-(4-hydroxy-1-piperidyl)-2-pyridyl]amino]-6H-1,6-naphthyridin-5-one]: the IC50 fell in the range of 100 to 1000 nM.

As for `O=c1[nH]ccc2nc(-c3cc(CN4CC5(CCCO5)C4)ccc3F)cc(Nc3ccc(N4CCC(O)CC4)cn3)c12` [I-255, 2-[2-fluoro-5-(5-oxa-2-azaspiro [3.4]octan-2-ylmethyl)phenyl]-4-[[5-(4-hydroxy-1-piperidyl)-2-pyridyl]amino]-6H-1,6-naphthyridin-5-one], the IC50 is more than 1000 nM.

Take `CN(C)C1CCc2cc(-c3cc(Nc4ccc(N5CCC(O)CC5)cn4)c4c(=O)[nH]ccc4n3)c(F)cc21` (stereo not shown) [I-238, 2-[1-(dimethyl-amino)-6-fluoro-indan-5-yl]-4-[[5-(4-hydroxy-1-piperidyl)-2-pyridyl]amino]-6H-1,6-naphthyridin-5-one]: the IC50 lay in the range of 100 to 1000 nM.

`COc1cc(-c2cc(Nc3cccc(N4CCNCC4)n3)c3c(=O)[nH]ccc3n2)c(F)cc1C(=O)N1CCCCC1` [I-234, 2-[2-fluoro-5-methoxy-4-(piperidine-1-carbonyl)phenyl]-4-[(6-piperazin-1-yl-2-pyridyl)amino]-6H-1,6-naphthyridin-5-one]: the IC50 is not above 100 nM.

As to `CCC(CC)c1cc(Nc2ccc(N3CCC(O)CC3)cn2)c2c(=O)[nH]ccc2n1` [I-32, 2-(1-ethylpropyl)-4-[[5-(4-hydroxy-1-piperidyl)-2-pyridyl]amino]-6H-1,6-naphthyridin-5-one], the IC50 was in the range of 100 to 1000 nM.

On to `O=c1[nH]cnc2cc(-c3c(F)cccc3F)nc(Nc3ccc(N4CCC(O)CC4)cn3)c12` [I-13, 7-(2,6-difluoro-phenyl)-5-[[5-(4-hydroxy-1-piperidyl)-2-pyridyl]amino]-3H-pyrido[4,3-d] pyrimidin-4-one], for which the IC50 was 100 to 1000 nM.

Regarding `O=c1[nH]ccc2nc(N3CCC4(CCNC4)CC3)cc(Nc3ccc(N4CCC(O)CC4)cn3)c12` [I-235, 2-(2,8-diazaspiro[4.5]decan-8-yl)-4-[[5-(4-hydroxy-1-piperidyl)-2-pyridyl]amino]-6H-1,6-naphthyridin-5-one], the IC50 was not above 100 nM.

For `O=c1[nH]ccc2nc(C3CCCC3)cc(Nc3ccc(N4CCC(O)CC4)cn3)c12` [I-20, 2-cyclopentyl-4-[[5-(4-hydroxy-1-piperidyl)-2-pyridyl]amino]-6H-1,6-naphthyridin-5-one], the IC50 is 100 to 1000 nM.
